Reference: ChEMBL document CHEMBL3885881, “DrugMatrix”

Species: Rattus norvegicus
Experiment: DrugMatrix - Regimen: Daily Repeat
Assay type: toxicity, organism-based, Sprague-Dawley
Set-up: regimen Daily Repeat, gender Male, age 6-8 weeks
Conditions: in vivo, po, route oral GAVAGE, vehicle 100 % WATER; for ABSOLUTE BASOPHIL / ABSOLUTE EOSINOPHIL / ABSOLUTE LYMPHOCYTE / ABSOLUTE MONOCYTE / ABSOLUTE SEGMENTED NEUTROPHIL / BASOPHIL / EOSINOPHIL / ERYTHROCYTE COUNT / HEMATOCRIT / HEMOGLOBIN / LEUKOCYTE COUNT / LYMPHOCYTE / MEAN CORPUSCULAR HEMOGLOBIN / MEAN CORPUSCULAR HEMOGLOBIN CONCENTRATION / MEAN CORPUSCULAR VOLUME / MONOCYTE / NEUTROPHIL / NUCLEATED RED BLOOD CELLS / PLATELET COUNT: tissue Blood; for ALANINE AMINOTRANSFERASE / ALBUMIN / ALKALINE PHOSPHATASE / ASPARTATE AMINOTRANSFERASE / BLOOD UREA NITROGEN / CARBON DIOXIDE / CHLORIDE / CHOLESTEROL / CREATINE PHOSPHOKINASE / CREATININE / GLUCOSE / LACTATE DEHYDROGENASE / LIPASE / PHOSPHORUS / POTASSIUM / SODIUM / TOTAL BILIRUBIN / TOTAL PROTEIN / URIC ACID: tissue Plasma
[1] = 3 mg/kg, 120 h, dose level Low, time 5 day
[2] = 47 mg/kg, 72 h, dose level High, time 3 day
[3] = 47 mg/kg, 120 h, dose level High, time 5 day

CN(C)CC[C@@H](c1ccc(Cl)cc1)c1ccccn1 [DEXCHLORPHENIRAMINE]
ABSOLUTE BASOPHIL [1]: 0 CELLS/uL
ABSOLUTE EOSINOPHIL [1]: 0 CELLS/uL
ABSOLUTE LYMPHOCYTE [1]: 15600.33 CELLS/uL
ABSOLUTE MONOCYTE [1]: 181.67 CELLS/uL
ABSOLUTE SEGMENTED NEUTROPHIL [1]: 884.67 CELLS/uL
BASOPHIL [1]: 0%
EOSINOPHIL [1]: 0%
ERYTHROCYTE COUNT [1]: 5.61 x10E6/uL
HEMATOCRIT [1]: 35.43%
HEMOGLOBIN [1]: 14.3 G/DL
LEUKOCYTE COUNT [1]: 16.67 x10E3/uL
LYMPHOCYTE [1]: 93.67%
MEAN CORPUSCULAR HEMOGLOBIN [1]: 25.5 pg
MEAN CORPUSCULAR HEMOGLOBIN CONCENTRATION [1]: 40.33 G/DL
MEAN CORPUSCULAR VOLUME [1]: 63.17 fL
MONOCYTE [1]: 1%
NEUTROPHIL [1]: 5.33%
NUCLEATED RED BLOOD CELLS [1]: 0.33 /100WBC
PLATELET COUNT [1]: 1254.33 x10E3/uL
ALANINE AMINOTRANSFERASE [1]: 55.33 u/L
ALBUMIN [1]: 4.17 G/DL
ALKALINE PHOSPHATASE [1]: 407 u/L
ASPARTATE AMINOTRANSFERASE [1]: 86.33 u/L
BLOOD UREA NITROGEN [1]: 15 mg/dL
CARBON DIOXIDE [1]: 32 mmol/L
CHLORIDE [1]: 102 MEQ/L
CHOLESTEROL [1]: 63.33 mg/dL
CREATINE PHOSPHOKINASE [1]: 451.67 u/L
CREATININE [1]: 0.18 mg/dL
GLUCOSE [1]: 121.33 mg/dL
LACTATE DEHYDROGENASE [1]: 251 u/L
LIPASE [1]: 10.33 u/L
PHOSPHORUS [1]: 12.1 mg/dL
POTASSIUM [1]: 6.1 MEQ/L
SODIUM [1]: 144.9 MEQ/L
TOTAL BILIRUBIN [1]: 0.23 mg/dL
TOTAL PROTEIN [1]: 6.07 G/DL
URIC ACID [1]: 1.37 mg/dL
ABSOLUTE BASOPHIL [2]: 0 CELLS/uL
ABSOLUTE EOSINOPHIL [2]: 62.67 CELLS/uL
ABSOLUTE LYMPHOCYTE [2]: 12240 CELLS/uL
ABSOLUTE MONOCYTE [2]: 133 CELLS/uL
ABSOLUTE SEGMENTED NEUTROPHIL [2]: 864.33 CELLS/uL
BASOPHIL [2]: 0%
EOSINOPHIL [2]: 0.67%
ERYTHROCYTE COUNT [2]: 5.93 x10E6/uL
HEMATOCRIT [2]: 38.13%
HEMOGLOBIN [2]: 14.77 G/DL
LEUKOCYTE COUNT [2]: 13.3 x10E3/uL
LYMPHOCYTE [2]: 91.33%
MEAN CORPUSCULAR HEMOGLOBIN [2]: 24.9 pg
MEAN CORPUSCULAR HEMOGLOBIN CONCENTRATION [2]: 38.73 G/DL
MEAN CORPUSCULAR VOLUME [2]: 64.3 fL
MONOCYTE [2]: 1%
NEUTROPHIL [2]: 7%
NUCLEATED RED BLOOD CELLS [2]: 0 /100WBC
PLATELET COUNT [2]: 1535.33 x10E3/uL
ALANINE AMINOTRANSFERASE [2]: 44.33 u/L
ALBUMIN [2]: 4.03 G/DL
ALKALINE PHOSPHATASE [2]: 352 u/L
ASPARTATE AMINOTRANSFERASE [2]: 75 u/L
BLOOD UREA NITROGEN [2]: 14.67 mg/dL
CARBON DIOXIDE [2]: 33.67 mmol/L
CHLORIDE [2]: 102 MEQ/L
CHOLESTEROL [2]: 65 mg/dL
CREATINE PHOSPHOKINASE [2]: 246.67 u/L
CREATININE [2]: 0.17 mg/dL
GLUCOSE [2]: 153.67 mg/dL
LACTATE DEHYDROGENASE [2]: 134 u/L
LIPASE [2]: 10.67 u/L
PHOSPHORUS [2]: 12.47 mg/dL
POTASSIUM [2]: 6.39 MEQ/L
SODIUM [2]: 145.23 MEQ/L
TOTAL BILIRUBIN [2]: 0.17 mg/dL
TOTAL PROTEIN [2]: 5.97 G/DL
URIC ACID [2]: 1.93 mg/dL
ABSOLUTE BASOPHIL [3]: 0 CELLS/uL
ABSOLUTE EOSINOPHIL [3]: 0 CELLS/uL
ABSOLUTE LYMPHOCYTE [3]: 14891.67 CELLS/uL
ABSOLUTE MONOCYTE [3]: 0 CELLS/uL
ABSOLUTE SEGMENTED NEUTROPHIL [3]: 875 CELLS/uL
BASOPHIL [3]: 0%
EOSINOPHIL [3]: 0%
ERYTHROCYTE COUNT [3]: 6.11 x10E6/uL
HEMATOCRIT [3]: 38.9%
HEMOGLOBIN [3]: 14.93 G/DL
LEUKOCYTE COUNT [3]: 15.77 x10E3/uL
LYMPHOCYTE [3]: 94.33%
MEAN CORPUSCULAR HEMOGLOBIN [3]: 24.47 pg
MEAN CORPUSCULAR HEMOGLOBIN CONCENTRATION [3]: 38.37 G/DL
MEAN CORPUSCULAR VOLUME [3]: 63.73 fL
MONOCYTE [3]: 0%
NEUTROPHIL [3]: 5.67%
NUCLEATED RED BLOOD CELLS [3]: 0 /100WBC
PLATELET COUNT [3]: 1215 x10E3/uL
ALANINE AMINOTRANSFERASE [3]: 35.67 u/L
ALBUMIN [3]: 4.17 G/DL
ALKALINE PHOSPHATASE [3]: 323 u/L
ASPARTATE AMINOTRANSFERASE [3]: 76.67 u/L
BLOOD UREA NITROGEN [3]: 14.67 mg/dL
CARBON DIOXIDE [3]: 30.67 mmol/L
CHLORIDE [3]: 101.33 MEQ/L
CHOLESTEROL [3]: 61.67 mg/dL
CREATINE PHOSPHOKINASE [3]: 322 u/L
CREATININE [3]: 0.13 mg/dL
GLUCOSE [3]: 169.67 mg/dL
LACTATE DEHYDROGENASE [3]: 202.67 u/L
LIPASE [3]: 11 u/L
PHOSPHORUS [3]: 12.57 mg/dL
POTASSIUM [3]: 5.79 MEQ/L
SODIUM [3]: 144.7 MEQ/L
TOTAL BILIRUBIN [3]: 0.2 mg/dL
TOTAL PROTEIN [3]: 6.33 G/DL
URIC ACID [3]: 1.57 mg/dL
